Assay results taken from patent US7176281B2 (priority 2003, dated 2007).
Where a SMILES comes first, the peptide text is derived from it.

Experiments:
[1] = target: T1, 100-kDa human recombinant cytosolic form of PLA2 (cPLA2) (Homo sapiens, UniProt P47712); test: PLA2 inhibition, E. coli membrane assay, cPLA2; type: biochemical; settings: inhibition
T1 sequence (P47712 1-749): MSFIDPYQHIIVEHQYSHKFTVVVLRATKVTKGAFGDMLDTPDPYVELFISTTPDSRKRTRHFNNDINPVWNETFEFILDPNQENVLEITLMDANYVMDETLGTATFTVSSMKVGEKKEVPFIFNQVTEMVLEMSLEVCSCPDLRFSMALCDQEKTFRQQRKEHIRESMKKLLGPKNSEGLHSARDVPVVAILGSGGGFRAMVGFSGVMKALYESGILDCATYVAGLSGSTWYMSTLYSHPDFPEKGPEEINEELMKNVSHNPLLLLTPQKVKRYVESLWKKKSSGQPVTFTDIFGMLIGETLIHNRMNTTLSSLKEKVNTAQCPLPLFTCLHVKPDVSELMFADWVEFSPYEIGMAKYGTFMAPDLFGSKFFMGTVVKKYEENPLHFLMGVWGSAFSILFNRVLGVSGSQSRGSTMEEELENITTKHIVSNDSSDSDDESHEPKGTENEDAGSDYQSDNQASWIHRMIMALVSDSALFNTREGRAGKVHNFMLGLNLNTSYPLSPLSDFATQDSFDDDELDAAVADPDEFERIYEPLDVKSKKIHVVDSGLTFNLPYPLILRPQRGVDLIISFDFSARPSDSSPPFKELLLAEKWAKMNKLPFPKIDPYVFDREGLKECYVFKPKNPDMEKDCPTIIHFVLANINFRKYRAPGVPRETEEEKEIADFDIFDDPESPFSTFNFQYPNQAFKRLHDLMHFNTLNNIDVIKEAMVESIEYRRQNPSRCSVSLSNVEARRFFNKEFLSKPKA

[2] = system: Tg197 transgenic mice (chronic inflammatory polyarthritis); test: Tg197 transgenic mouse arthritis model, experiment 1 (5 weeks); type: in vivo; settings: for % of total joints, AS (1) / % of total joints, AS (1.5–2): 5 week post-treatment; for % of total at indicated HS scores, HS 2 / % of total at indicated HS scores, HS 3 / % of total at indicated HS scores, HS 4 / Mean HS ± SEM: 5 weeks
Experimental: The candidate peptide P-NT.II was dissolved in dimethyl sulfoxide (DMSO) at a final concentration of 3 mg/mL. Two sets of experiments were conducted. In Experiment 1 (n=28 Transgenic (Tg197)+7 wild type (wt), peptide-treated animals (Group B) received intra-peritoneal (i.p) injections of 10 mg/kg, thrice weekly for 5 consecutive weeks, while the vehicle controls (Group E) were injected with DMSO (3 mL/kg) only. Non-transgenic (wild type) mice in different groups (C, D) were similarly treated either with the same i.p dose of peptide or DMSO. At the end of the experiment following 5 weeks of peptide injection, each Tg197 mice received a total dose of 1.8 mg of peptide P-NT.II (0.9 μmole).
Disease monitoring was done by gross observations based on body weight measurements and arthritis scoring, which were done twice weekly after treatment until all the animals were sacrificed at 5th week in experiment 1, or at 4th week in experiment 2. Arthritis score (AS) was recorded on both ankle joints, and average scores as shown below were taken: • 0=no arthritis (normal appearance and flexion); • 0.5=onset of arthritis (mild joint swelling); • 1.0=mild arthritis (joint distortion); • 1.5=as above+finger deformation, less strength on flexion; • […]=moderate arthritis (severe swelling, joint deformation, no strength on flexion); • 2.5=as above+finger deformation in paws; • 3.0=heavy arthritis (ankylosis detected on flexion and severely impaired movement).
For histopathological scoring, both hind legs were dissected and fixed in 10% formaldehyde overnight, decalcified in citrate-buffered formic acid for 3 days at 4° C., and processed for light microscopy (LM). • Histopathological score (HS) was evaluated as follows: • 0=no detectable pathology, • 1=hyperplasia of the synovial membrane and presence of polymorphonuclear infiltrates • 2=pannus and fibrous tissue formation and focal subchondrial bone erosion • 3=articular cartilage destruction and bone erosion • 4=articular cartilage destruction and extensive bone erosion.
Anti-inflammatory activity of the candidate peptide P-NT.II was examined as a new treatment option for modulating rheumatoid arthritis (RA) in a transgenic animal model. To evaluate the potential effectiveness of the peptide as prophylaxis against RA, two separate experiments were performed in 4 week-old transgenic (Tg197) mice and non-transgenic wild-type (wt) mice. These transgenic mice (Tg197) express human tumor necrosis factor (TNFα), a cytokine which has been implicated in the pathogenesis of human RA.

serum sPLA2 = test: Serum sPLA2 levels in Tg197 mice, E. coli membrane assay; type: in vivo, mouse; settings: 3–4 weeks post-treatment
Experimental: Serum of transgenic (Tg197) mice and non-transgenic wild type controls were measured for sPLA2 using an Escherichia coli (E. coli) membrane assay as described previously [Eur J Biochem 2002, 269:719–727]. In brief, [^3H] arachidonate-labeled E. coli membrane suspension (5.8 μCi/μmol, Perkin Elmer, USA) was used as substrate, and 25 mM CaCl2-100 mM Tris-HCl (pH 7.5) as assay buffer. The reaction mixture containing substrate (20 μl), and either purified human synovial sPLA2 standard (1–80 ng/ml, Cayman, USA) or serum (10 μl) in a final volume of 250 μl in assay buffer was incubated at 37° C. for 1 h, and the reaction terminated with 750 μl of chilled PBS containing 1% BSA. 500 μl aliquots of the supernatant were then taken to measure the amount of [^3H] arachidonate released from the E. coli membrane using liquid scintillation counting (Beckman LS 6500 Scintillation Counter). The amount of sPLA2 present in the serum was calculated from the standard curve, and is expressed as ng/ml±SEM.
FIG. 12 depicts time course of serum sPLA2 levels. Serum sPLA2 levels were measured with an E. coli membrane assay in blood samples collected from untreated, P-NT.I- and scrambled P-NT.II-treated Tg197 mice at weekly intervals. Values are the mean±SD (n=4/group). […]

SMILES: CC[C@H](C)[C@H](NC(=O)[C@H](Cc1ccc(O)cc1)NC(=O)[C@@H](NC(=O)CNC(=O)[C@H](CC(=O)O)NC(=O)[C@H](Cc1c[nH]c2ccccc12)NC(=O)[C@@H](NC(=O)[C@H](Cc1c[nH]cn1)NC(=O)[C@@H](NC(=O)[C@H](CC(=O)O)NC(=O)[C@@H](NC(=O)[C@H](CCCNC(=N)N)NC(=O)CNC(=O)[C@@H](N)CC(C)C)C(C)C)[C@@H](C)CC)C(C)C)C(C)C)C(=O)N[C@@H](CCCNC(=N)N)C(=O)NCC(=O)N[C@@H](CCCNC(=N)N)C(=O)O [P-NT.II] (H-LGRVDIHVWDGVYIRGR-OH; N-terminus and C-terminus assumed)
- selectivity for sPLA2 over cPLA2 [1]: five-fold
- % of total joints, AS (1) ([2]; 4 M + 3 F, 14 joints): 50%
- % of total joints, AS (1.5–2) ([2]; 4 M + 3 F, 14 joints): 50%
- % of total at indicated HS scores, HS 2 ([2]; 4 M + 3 F, 14 joints): 35.7%
- % of total at indicated HS scores, HS 3 ([2]; 4 M + 3 F, 14 joints): 64.3%
- % of total at indicated HS scores, HS 4 ([2]; 4 M + 3 F, 14 joints): 0%
- Mean HS ± SEM ([2]; 4 M + 3 F, 14 joints): 2.71 ± 0.15
- % of total at indicated HS scores, HS 2 ([2]; 4 M, 8 joints, 10 mg/kg i.p. thrice weekly): 62.5%
- % of total joints, AS (1) ([2]; 4 M, 8 joints): 87%
- % of total joints, AS (1.5–2) ([2]; 4 M, 8 joints): 13%
- % of total at indicated HS scores, HS 3 ([2]; 4 M, 8 joints): 37.5%
- % of total at indicated HS scores, HS 4 ([2]; 4 M, 8 joints): 0%
- Mean HS ± SEM ([2]; 4 M, 8 joints): 2.37 ± 0.18
- effect of peptide on joint damage ([2]; females, P>0.05): less evident
- histological scores compared with untreated or DMSO-treated groups ([2]; male Tg197 mice, P<0.001): significantly lower histological scores
- histological scores compared with untreated or DMSO-treated mice ([2]; males + females, P<0.05): significantly lower histological scores
- circulating sPLA2 compared with untreated mice (serum sPLA2): significantly suppressed
